Test results published in article PMC10606834, “Is the Neuropeptide PEN a Ligand of GPR83?” (International Journal of Molecular Sciences, 2023).
“Also recorded” adds a separate entry of the source.

What was measured:
Assay type in all cases: cell-based, human
[1] = system: ERK1/2 phosphorylation in wild-type HEK293 cells; experiment: ERK1/2 phosphorylation (immunoblot), wild-type cells; settings: 10 µM PEN #1, 15 min, n = 2
From the text: (§1) Apart from G protein-mediated second messenger signaling via Ca^2+ and cAMP, GPCR stimulation may also lead to activation of β-arrestin and phosphorylation of extracellular signal-regulated kinases 1/2 (ERK1/2). Immunoblot analysis was employed to investigate ligand-dependent phosphorylation of ERK1/2 in HEK293 cells overexpressing GPR83 or the deletion variant GPR83del as well as in wild-type HEK293 cells.
(§2) Figure 4 Ligand-dependent phosphorylation of ERK1/2 and β-arrestin (TANGO) assay. (A) Immunoblot detection of phosphorylated (upper blot) and total (lower blot) ERK1/2 in lysates of HEK293 wild-type cells and in HEK293 cells overexpressing GPR83 or GPR83del. (B) Quantification (mean ± SD of n = 2 independent experiments) of chemiluminescent readout of the immunoblots shown in (A). (C) TANGO assay for ligand-induced β-arrestin activity in HTLA cells overexpressing GPR83 (relative light units, RLU). (D) TANGO assay for ligand-induced β-arrestin activity in HTLA cells overexpressing bradykinin receptor BDKBR2.
(§3) 4.7. ERK1/2 Phosphorylation Assay
Effects of GPCR ligands on MAPK signaling were assessed with Western blot analysis of lysates from stimulated cells. The ERK1/2 activation assay was performed as described before. […] Blots were analyzed using densitometric quantification using Image Lab Software v4.1 (Bio-Rad).

[2] = system: ERK1/2 phosphorylation in HEK293 cells overexpressing GPR83 or GPR83del; experiment: ERK1/2 phosphorylation (immunoblot), GPR83 cells
From the text: as §1, §2, §3
Effects of GPCR ligands on MAPK signaling were assessed with Western blot analysis of lysates from stimulated cells. The ERK1/2 activation assay was performed as described before. Briefly, 50,000 cells per well were seeded onto adherent 6-well plates and cultured until cells were 80% confluent. After incubation with ligands (10 µM PEN #1 and 100 ng/mL EGF or 200 nM PMA in 0.1% FCS/DMEM) for 15 min, cells were lysed using 200 µL/well cell lysis buffer (100 mM Tris-HCl pH 8.8, 1% SDS) and protease inhibitors (cOmplete, Roche, Basel, Switzerland) on ice for one hour. Immunolabeling was realized using the rabbit monoclonal primary antibody anti-phospho-ERK1/2 Thr^202/Tyr^204 (#4370, Cell Signaling Technologies, Danvers, MA, USA, 1:2000), or anti-total ERK1/2 (#05-1152; Millipore, Burlington, VT, USA; 1:2000), respectively. Blots were analyzed using densitometric quantification using Image Lab Software v4.1 (Bio-Rad).

GPR83 (HTLA cells) = experiment: TANGO β-arrestin assay, GPR83; settings: ligand library containing PEN (library plates 10 µM); HTLA cells expressing GPR83; PRESTO-Tango, RLU
Protocol: The TANGO assay reports GPCR-related activation of β-arrestin using a luminescent readout.
For the determination of β-arrestin recruitment after GPCR activation, the PRESTO-Tango system was utilized. On day one, HTLA cells (HEK293 cell line stably expressing a tTA-dependent luciferase reporter and a β-arrestin2-TEV fusion gene, maintained in RPMI supplemented with 10% FBS, 2 μg/mL puromycin, and 100 μg/mL hygromycin) were seeded into 150 mm cell culture plates at 1 × 10^7 cells per well in 30 mL of medium. The next day, transfections were performed directly in the 150 mm plates using jetPEI (Polyplus, Illkirch, France). Plasmid DNA of interest was prepared for transfection following the jetPEI protocol and with a DNA/jetPEI ratio of 1:1. A GFP-encoding plasmid was added as a transfection control (GFP plasmid added as 10% of total DNA to the total NaCl used for plasmid DNA dilution). On day 3, transfected cells were transferred at 15,000 cells per well in 30 μL of medium into 384-well black well, clear bottom plates. On day 4, ligand library multiwall plates (10 µM) were thawed, and 23 μL was added to each well. On day 5, 50 μL per well of BrightGlo luminescence reagent (diluted 10-fold with HBSS buffer) was carefully added, and plates were incubated for 10 min before luminescence reading in the EnVision 2103 Multilabel Reader (Perkin Elmer).

Sequence: AADHDVGSELPPEGVLGALLRV [PEN, batch #1 synthesized, batch #2 purchased from Phoenix Pharmaceuticals]
- phosphorylation of ERK1/2, wild-type HEK293 versus GPR83 or GPR83del cells [1]: equally strong ERK1/2 phosphorylation in wild-type HEK293 cells as well as in HEK293 cells overexpressing GPR83 or GPR83del; also recorded: also demonstrated a similar phosphorylation after incubation with PEN
- phosphorylation of ERK1/2 ([2]; 10 µM PEN #1, 100 ng/mL EGF or 200 nM PMA, 15 min, HEK293 overexpressing GPR83 or GPR83del as well as wild-type HEK293, n = 2 independent experiments): substantially induced phosphorylation of ERK1/2
- phosphorylation of ERK1/2, GPR83 or GPR83del cells versus wild-type ([2]; 10 µM PEN #1, 15 min, n = 2): equally strong ERK1/2 phosphorylation in wild-type HEK293 cells as well as in HEK293 cells overexpressing GPR83 or GPR83del
- β-arrestin activation (luminescence) (GPR83 (HTLA cells)): no reactivity was detected; also recorded: failed to generate a signal
